Columns and labels:
[1] = system: Spodoptera littoralis (Egyptian cotton leaf worm); assay: Example B1: Spodoptera littoralis larvicide, feeding/residual contact, preventive (cotton leaf discs); assay type: in vivo; conditions: foliar, 72 h, L1 larvae, 3 days after treatment, read-out: activity (mortality, repellent effect, feeding behaviour, growth regulation)
Excerpt: Example B1: Activity Against Spodoptera littoralis (Egyptian Cotton Leaf Worm)
(§1) (Larvicide, Feeding/Residual Contact Activity, Preventive)
Cotton leaf discs were placed on agar in a 24-well microtiter plate and sprayed with test solutions. After drying, the leaf discs were infested with 5 L1 larvae. The samples were checked for mortality, repellent effect, feeding behaviour, and growth regulation 3 days after treatment (DAT).

[2] = system: Plutella xylostella (diamond back moth); assay: Example B3: Plutella xylostella larvicide, feeding/residual contact, preventive (artificial diet); assay type: in vivo; conditions: 120 h, L2 larvae, incubation 5 days, read-out: activity (larval mortality, antifeedant, growth regulation)
Method: Example B3: Activity Against Plutella xylostella (Diamond Back Moth)
as §1
24-well microtiter plate (MTP) with artificial diet was treated with test solutions by pipetting. After drying, the MTPs were infested with L2 larvae (10-15 per well). After an incubation period of 5 days, samples were checked for larval mortality, antifeedant and growth regulation.

[3] = system: Myzus persicae (green peach aphid); assay: Example B5: Myzus persicae feeding/residual contact, preventive, mixed population (sunflower leaf discs); assay type: in vivo; conditions: foliar, 144 h, 6 DAT, read-out: activity (mortality and special effects)
Method: Example B5: Activity Against Myzus persicae (Green Peach Aphid)
(Feeding/Residual Contact Activity, Preventive), Mixed Population
Sunflower leaf discs were placed on agar in a 24-well microtiter plate and sprayed with test solutions. After drying, the leaf discs were infested with an aphid population of mixed ages. After an incubation period of 6 DAT, samples were checked for mortality and special effects (e.g. phytotoxicity).

[4] = system: Myzus persicae (green peach aphid); assay: Example B7: Myzus persicae systemic/feeding activity, curative, mixed population (pea seedlings); assay type: in vivo; conditions: 144 h, systemic, 6 days after introduction, read-out: activity (mortality and special effects on the plant)
Excerpt: Example B7: Activity Against Myzus persicae (Green Peach Aphid)
(Systemic/Feeding Activity, Curative), Mixed Population
Roots of pea seedlings, infested with an aphid population of mixed ages, were placed directly in the test solutions. 6 days after introduction, samples were checked for mortality and special effects on the plant.

[5] = system: Diabrotica balteata (corn root worm); assay: Example B4: Diabrotica balteata larvae L2 on maize sprouts, feeding/contact, preventative; assay type: in vivo; conditions: 120 h, incubation 5 days, read-out: activity (larval mortality, growth regulation)
Method: Example B4: Activity Against Diabrotica Balteata (Corn Root Worm)
(Larvae L2 on Maize Sprouts, Feeding/Contact, Preventative)
Maize sprouts, placed on an agar layer in 24 well micro titer plates were treated with test solutions by spraying. After drying, the MTPs were infested with L2 larvae (6-10 per well). After an incubation period of 5 days, samples were checked for larval mortality and growth regulation.

[6] = system: Euschistus heros (neotropical brown stink bug); assay: Example B8: Euschistus heros on sprayed soybean leaf; assay type: in vivo; conditions: 120 h, N-2 nymphs, 5 days after infestation
Method: Example B8: Activity Against Euschistus heros (Neotropical Brown Stink Bug)
Soybean leaf on agar in 24-well microtiter plates were sprayed with aqueous test solutions prepared from 10′000 ppm DMSO stock solutions. After drying the leaf were infested with N-2 nymphs. The samples were assessed for mortality 5 days after infestation.

[7] = system: Myzus persicae (green peach aphid); assay: Example B6: Myzus persicae feeding activity sachet test, mixed population; assay type: in vivo; conditions: 120 h, 5 days after infestation
Excerpt: Example B6: Activity Against Myzus persicae (Green Peach Aphid)
(Feeding Activity Sachet Test), Mixed Population
Test compounds were applied by pipette into 24 well plates and mixed with Sucrose solution. The plates were closed with a stretched Parafilm. A plastic stencil with 24 holes is placed onto the plate and infested pea seedlings were placed directly on the Parafilm. The infested plate is closed with a gel blotting paper and another plastic stencil and then turned upside down. 5 days after infestation the samples were checked on mortality. Application rate: 12.5 ppm.

[8] = system: Spodoptera littoralis (Egyptian cotton leaf worm); assay: Example B2: Spodoptera littoralis systemic activity (lettuce on agar); assay type: in vivo; conditions: 120 h, 5 days after infestation, read-out: activity (mortality, repellent effect, feeding behavior, growth regulation)
Excerpt: Example B2: Activity Against Spodoptera littoralis (Egyptian Cotton Leaf Worm)
Test compounds were applied by pipette into 24 well plates and mixed with agar. Lettuce seeds were placed on the agar and the multi well plate is closed by another plate which contains also agar. After 7 days the roots have absorbed the compound and the lettuce has grown into the lid plate. The lettuce leaves were now cut off into the lid plate. Spodoptera eggs were pipetted through a plastic stencil on a humid gel blotting paper and the plate closed with it. The samples are checked for mortality, repellent effect, feeding behavior, and growth regulation 5 days after infestation.

[9] = system: Anopheles stephensi (Indian malaria mosquito); assay: Example B10: Anopheles stephensi adult females on treated tissue culture plates; assay type: in vivo; conditions: application rate 200 ppm in ethanol; after 48 h
Method: Example B10: Activity Against Anopheles stephensi (Indian Malaria Mosquito)
Test solutions, at an application rate of 200 ppm in ethanol, were applied to 12-well tissue culture plates. Once the deposits were dry, five, two to five day old adult female Anopheles stephensi were added to each well, and sustained with a 10% sucrose solution in a cotton wool plug. Assessment of knockdown was made one hour after introduction, and mortality was assessed at 24 and 48 hours after introduction.

Structure (SMILES) | mortality at 400 ppm [1] [%] | mortality at 400 ppm [2] [%] | mortality at 400 ppm [3] [%] | mortality at 24 ppm [4] [%] | mortality at 400 ppm [5] [%] | mortality at 400 ppm [6] [%] | mortality at 12.5 ppm [7] [%] | mortality at 12.5 ppm [8] [%] | control of Anopheles stephensi [9] | melting point [°C]
CCS(=O)(=O)c1cccnc1-c1nc2sc(C(F)(F)F)nn2c1C [Compound P5] | > 80 | > 80 | > 80 | ≥ 80 | – | – | – | – | – | –
CC[S+]([O-])c1cc(C(F)(F)F)cnc1-c1cn2cc(C(F)(F)F)sc2n1 (stereo not shown) [Compound P10] | > 80 | – | – | – | – | – | – | – | – | –
CC[S+]([O-])c1cc(C(F)(F)F)cnc1-c1cn2nc(C(F)(F)C(F)(F)F)sc2n1 (stereo not shown) [Compound P7] | > 80 | > 80 | > 80 | – | > 80 | > 80 | – | – | – | –
CCS(=O)(=O)c1cc(C(F)(F)F)cnc1-c1nc2sc(C(F)(F)F)nn2c1C [Compound P3, 6-[3-ethylsulfonyl-5-(trifluoromethyl)-2-pyridyl]-5-methyl-2-(trifluoromethyl)imidazo[2,1-b][1,3,4]thiadiazole] | > 80 | > 80 | > 80 | – | > 80 | – | ≥ 80 | – | – | –
CCS(=O)(=O)c1cccnc1-c1cn2nc(C(F)(F)F)sc2n1 [Compound P2, 6-(3-ethylsulfonyl-2-pyridyl)-2-(trifluoromethyl)imidazo[2,1-b][1,3,4]thiadiazole] | > 80 | > 80 | > 80 | ≥ 80 | > 80 | – | ≥ 80 | ≥ 80 | at least 80% | –
CCS(=O)(=O)c1cc(C(F)(F)F)cnc1-c1cn2nc(C(F)(F)F)sc2n1 [Compound P4] | > 80 | > 80 | – | – | > 80 | – | – | – | – | –
CCSc1cc(C(F)(F)F)cnc1-c1cn2nc(C(F)(F)C(F)(F)F)sc2n1 [Compound P6] | – | – | – | – | – | – | – | – | – | 110 to 112
CCS(=O)(=O)c1cc(C(F)(F)F)cnc1-c1cn2cc(C(F)(F)F)sc2n1 [Compound P9, 6-[3-ethylsulfonyl-5-(trifluoromethyl)-2-pyridyl]-2-(trifluoromethyl)imidazo[2,1-b]thiazole] | > 80 | > 80 | > 80 | – | > 80 | – | – | – | – | –
CCS(=O)(=O)c1cc(C(F)(F)F)cnc1-c1cn2nc(C(F)(F)C(F)(F)F)sc2n1 [Compound P8] | > 80 | > 80 | > 80 | – | > 80 | > 80 | – | ≥ 80 | – | –

Reference: US9706776B2, “Pesticidally active substituted 5,5-bicyclic heterocycles with sulphur containing substituents” (Syngenta Participations AG, priority 2013, dated 2017)
